Values of other authors as cited in patent US20070196322A1, “Method of preparing the colon for virtual colonoscopy” (Braintree Laboratories Inc., priority 2005, published 2007).
Like-named read-outs stand apart in the source and are kept apart here.

Test system: patient

In the case of CC(=O)Oc1ccc(C(c2ccc(OC(C)=O)cc2)c2ccccn2)cc1 [Bisacodyl, bisacodyl], the “time to bowel movement” value (enemas) is given as “about 20 minutes”, the “time to bowel movement” value (oral administration of a tablet) is given as “three to six” and the “time to bowel movement” value (oral administration of a tablet, listed as bisacodyl) is given as “three to about six”. The “time to bowel movement” value (suppositories) was “about an hour”.
